What was measured:
[1] = molecular target: T1, PPARδ-RXRα heterodimer (Homo sapiens, UniProt Q03181); experiment: PPARδ-RXRα heterodimer ligand activity, luciferase reporter in COS-1 transformant (Test Example 4); format: cell-based; settings: COS-1 transformant (hPPARδ, hRXRα, reporter), 36-48 hours, concentration for 50% of the maximum fold induction
T1 construct: expressed in transfected cells; host or cells: COS-1
T1 sequence (Q03181 1-441): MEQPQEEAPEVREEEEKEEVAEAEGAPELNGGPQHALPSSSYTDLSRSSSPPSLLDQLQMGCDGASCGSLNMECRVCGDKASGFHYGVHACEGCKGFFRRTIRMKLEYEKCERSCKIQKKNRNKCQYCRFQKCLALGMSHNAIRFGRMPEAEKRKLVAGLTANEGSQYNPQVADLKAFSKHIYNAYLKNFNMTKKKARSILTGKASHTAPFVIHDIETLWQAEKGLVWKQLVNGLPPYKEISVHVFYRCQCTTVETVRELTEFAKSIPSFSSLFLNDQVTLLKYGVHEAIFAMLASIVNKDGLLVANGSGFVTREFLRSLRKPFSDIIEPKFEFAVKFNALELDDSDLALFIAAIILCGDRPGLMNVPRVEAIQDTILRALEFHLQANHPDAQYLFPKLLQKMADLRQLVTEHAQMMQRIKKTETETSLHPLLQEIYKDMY
T1 sequence (P19793 1-462 partner): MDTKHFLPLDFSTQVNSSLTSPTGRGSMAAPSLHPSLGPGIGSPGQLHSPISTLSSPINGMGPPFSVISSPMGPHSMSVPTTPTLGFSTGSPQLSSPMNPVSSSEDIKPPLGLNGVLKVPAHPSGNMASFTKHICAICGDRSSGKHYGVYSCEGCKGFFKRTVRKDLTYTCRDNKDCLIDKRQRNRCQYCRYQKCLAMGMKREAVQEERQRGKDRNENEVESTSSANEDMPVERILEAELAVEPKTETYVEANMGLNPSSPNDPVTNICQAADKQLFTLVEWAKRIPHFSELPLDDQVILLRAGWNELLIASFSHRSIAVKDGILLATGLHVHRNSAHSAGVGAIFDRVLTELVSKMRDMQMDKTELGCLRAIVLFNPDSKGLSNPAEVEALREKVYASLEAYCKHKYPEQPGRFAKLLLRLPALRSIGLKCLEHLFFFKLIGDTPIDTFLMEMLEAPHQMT
Experimental: The transformant obtained in Reference Example 9a was suspended in DMEM medium (produced by Life Technologies, Inc., USA) containing 0.1% fatty acid-free bovine serum albumin (BSA) (produced by Wako Pure Chemical Industries, Ltd.), and inoculate to each well of a 96-well white plate (produced by Corning Costar Corporation, USA) by 80 μl at 1×10^4 cells/well. Then the test compound (20 μl) was added and cultured at 37° C. under 5% CO2 for 36-48 hours. After removing the medium from the 96-well white plate, 40 μl of PIKKAGENE LT 7.5 (produced by Wako Pure Chemical Industries, Ltd.) diluted twice with HBSS (HANKS' BALANCED SALT SOLUTION)(produced by BIO WHITTAKER Inc., USA), was added. After stirring, the luciferase activity was determined using 1420 ARVO Multilabel Counter (produced by PerkinElmer Inc., USA).
A fold induction was calculated based on the luciferase activity of each test compound by taking the luciferase activity in the non-treatment group as 1. The values of the test compound concentration and the fold induction were analyzed using PRISM (produced by GraphPad Software Inc. USA) to calculate the EC50 values, the effective concentration of a test compound for 50% of the maximum fold induction.
COS-1 cells were inoculated to a 150 cm^2 cell culture flask (produced by Corning Costar Corporation, USA) at the density of 5×10^6 cells/50 ml, and cultured at 37° C. under 5% CO2 conditions for 24 hours. Subsequently, a DNA was introduced into the cell under the condition shown below using Lipofectamine (produced by Invitrogen, USA).
First, Lipofectamine (125 μl), PLUS Reagent (100 μl, produced by Invitrogen, USA), plasmid pMCMVneo-hPPARδ (2.5 μg) obtained in Reference Example 3a, plasmid pMCMVneo-hRXRα (2.5 μg) obtained in Reference Example 4a and reporter plasmid pGL3-4ERPP-TK neo (5 μg) obtained in Reference Example 5a, and pRL-tk (5 μg, produced by Promega, USA) were mixed with opti-MEM (5 ml, produced by Invitrogen, USA) to give a transfection mixture.
Then, the above-mentioned transfection mixture and opti-MEM (20 ml) were added to COS-1 cells washed with opti-MEM, and the cells were cultured at 37° C. under 5% CO2 conditions for 3 hours. DMEM medium (25 ml, produced by Life Technologies, Inc., USA) containing 0.1% fatty acid-free bovine serum albumin (BSA) (produced by Wako Pure Chemical Industries, Ltd.) was added to the obtained COS-1 cells, and the cells were cultured at 37° C. under 5% CO2 conditions for 18-24 hours to give a transformant.

SMILES	melting point [°C]	EC50 [1] [nM]
CCOc1cc(OCCCc2cn(-c3ccc(C(F)(F)F)cn3)nc2OC(C)C)ccc1CCC(=O)O [Example 154, 3-[2-ethoxy-4-(3-{3-isopropoxy-1-[5-(trifluoromethyl)-2-pyridyl]-1H-pyrazol-4-yl}propoxy)phenyl]propanoic acid]	128 to 129	1.5
CCOc1nn(-c2ccc(C(F)(F)F)cn2)cc1CCOc1cccc(CC(=O)O)c1 [Example 62, [3-(2-{3-ethoxy-1-[5-(trifluoromethyl)-2-pyridinyl]-1H-pyrazol-4-yl}ethoxy)phenyl]acetic acid]	128 to 130	0.81
CCCc1nn(-c2ccc(C(F)(F)F)cn2)cc1CCCOc1cccc(CC(=O)O)c1F [Example 258, [2-fluoro-3-(3-{3-propyl-1-[5-(trifluoromethyl)-2-pyridyl]-1H-pyrazol-4-yl}propoxy)phenyl]acetic acid]	109 to 110	5.5
CCCc1nn(-c2ccc(C(F)(F)F)cn2)cc1CCCOc1ccc(CC(=O)O)c(C)c1 [Example 94, [2-methyl-4-(3-{3-propyl-1-[5-(trifluoromethyl)-2-pyridyl]-1H-pyrazol-4-yl}propoxy)phenyl]acetic acid]	134 to 135	4
CCCc1nn(-c2ccc(C(F)(F)F)cn2)cc1CCCCOc1cc(CC(=O)O)ccc1OC [Example 63, [4-methoxy-3-(4-{3-propyl-1-[5-(trifluoromethyl)-2-pyridinyl]-1H-pyrazol-4-yl}butoxy)phenyl]acetic acid]	147 to 148	9.5
O=C(O)Cc1cccc(OCCCc2cn(-c3ccc(C(F)(F)F)cn3)nc2-c2ccccc2)c1 [Example 124, [3-(3-{3-phenyl-1-[5-(trifluoromethyl)-2-pyridyl]-1H-pyrazol-4-yl}propoxy)phenyl]acetic acid]	132 to 133	2.4
CCOc1nn(-c2ccc(C(F)(F)F)cc2)cc1CCCOc1ccccc1CC(=O)O [Example 182, [2-(3-{3-ethoxy-1-[4-(trifluoromethyl)phenyl]-1H-pyrazol-4-yl}propoxy)phenyl]acetic acid]	114 to 115	5.6
CCCc1nn(-c2ccc(C(F)(F)F)cn2)cc1CCCOc1cc(CC(=O)O)cc(OC)c1 [Example 169, [3-methoxy-5-(3-{3-propyl-1-[5-(trifluoromethyl)-2-pyridyl]-1H-pyrazol-4-yl}propoxy)phenyl]acetic acid]	139 to 140	5.7
CCOc1cc(OCCCc2cn(-c3ccc(C(F)(F)F)cn3)nc2OC)ccc1CCC(=O)O [Example 152, 3-[2-ethoxy-4-(3-{3-methoxy-1-[5-(trifluoromethyl)-2-pyridyl]-1H-pyrazol-4-yl}propoxy)phenyl]propanoic acid]	145 to 146	9.9
CCOc1nn(-c2ccc(C(F)(F)F)cn2)cc1CCCOc1c(CC(=O)O)cccc1OC [Example 146, [2-(3-{3-ethoxy-1-[5-(trifluoromethyl)-2-pyridyl]-1H-pyrazol-4-yl}propoxy)-3-methoxyphenyl]acetic acid]	122 to 123	5.8
CCOc1ccc(CC(=O)O)cc1OCCCc1cn(-c2ccc(C(F)(F)F)cn2)nc1C(C)C [Example 200, [4-ethoxy-3-(3-{3-isopropyl-1-[5-(trifluoromethyl)-2-pyridyl]-1H-pyrazol-4-yl}propoxy)phenyl]acetic acid]	116 to 117	5.9
CCCc1nn(-c2ccc(C(F)(F)F)cn2)cc1CCCOc1cc(CC(=O)O)ccc1OCC [Example 204, [4-ethoxy-3-(3-{3-propyl-1-[5-(trifluoromethyl)-2-pyridyl]-1H-pyrazol-4-yl}propoxy)phenyl]acetic acid]	124 to 125	4.6
Cc1cc(OCc2cn(-c3ccc(C(F)(F)F)cn3)nc2C)ccc1CCC(=O)O [Example 123, 3-[2-methyl-4-({3-methyl-1-[5-(trifluoromethyl)-2-pyridyl]-1H-pyrazol-4-yl}methoxy)phenyl]propionic acid]	144 to 145	2.9
CCOc1nn(-c2ccc(C(F)(F)F)cn2)cc1CCOc1cc(CCC(=O)O)n(-c2ccccc2)n1 [Example 56, 3-[3-(2-{3-ethoxy-1-[5-(trifluoromethyl)-2-pyridinyl]-1H-pyrazol-4-yl}ethoxy)-1-phenyl-1H-pyrazol-5-yl]propanoic acid]	155 to 156	2.8
CCOc1nn(-c2ccc(C(F)(F)F)cn2)cc1CCOc1ccc(CCC(=O)O)c(C)c1 [Example 76, 3-[4-(2-{3-ethoxy-1-[5-(trifluoromethyl)-2-pyridinyl]-1H-pyrazol-4-yl}ethoxy)-2-methylphenyl]propanoic acid]	117 to 119	1.9
CCCc1nn(-c2ccc(C(F)(F)F)cn2)cc1CCCOc1ccc(CCC(=O)O)cc1OC [Example 96, 3-[3-methoxy-4-(3-{3-propyl-1-[5-(trifluoromethyl)-2-pyridyl]-1H-pyrazol-4-yl}propoxy)phenyl]propionic acid]	126 to 127	1.7
CCCc1nn(-c2ccc(C(F)(F)F)cn2)cc1CCCOc1cc(CC(=O)O)ccc1F [Example 91, [4-fluoro-3-(3-{3-propyl-1-[5-(trifluoromethyl)-2-pyridyl]-1H-pyrazol-4-yl}propoxy)phenyl]acetic acid]	88 to 89	6
CCCc1nn(-c2ccc(C(F)(F)F)cn2)cc1CCCOc1cccc(CC(=O)O)c1 [Example 44, [3-(3-{3-propyl-1-[5-(trifluoromethyl)-2-pyridyl]-1H-pyrazol-4-yl}propoxy)phenyl]acetic acid]	106 to 107	3.9
CCCc1nn(-c2ccc(C(F)(F)F)cn2)cc1CCCCOc1cccc(CC(=O)O)c1 [Example 59, [3-(4-{3-propyl-1-[5-(trifluoromethyl)-2-pyridinyl]-1H-pyrazol-4-yl}butoxy)phenyl]acetic acid]	96 to 97	9.7
CCCCOc1cc(OCCCc2cn(-c3ccc(C(F)(F)F)cn3)nc2OCC)ccc1CCC(=O)O [Example 118, 3-[2-butoxy-4-{3-(3-ethoxy-1-[5-(trifluoromethyl)-2-pyridinyl]-1H-pyrazol-4-yl}propoxy)phenyl]propanoic acid]	123 to 124	7.2
CCCc1nn(-c2ccc(C(F)(F)F)cn2)cc1CCCOc1ccc(C(C)(C)C(=O)O)cc1 [Example 157, 2-methyl-2-[4-(3-{3-propyl-1-[5-(trifluoromethyl)-2-pyridyl]-1H-pyrazol-4-yl}propoxy)phenyl]propanoic acid]	84 to 85	4.7

From patent US20060148858A1, “1, 2-Azole derivatives with hypoglycemic and hypolipidemic activity” (priority 2002, published 2006)
